Experimental data reported in patent US7915251B2, “Alpha-helix mimetics and methods relating to the treatment of fibrosis” (Institute for Chemical Genomics, priority 2005, dated 2011).

Key:
[1] = biological target: β-catenin/CBP interaction (Homo sapiens, UniProt Q92793); details: cited from earlier work
S100A4 [2] = experiment: S100A4 expression in IPF patient fibroblasts (Western blot on whole cell lysates); type: cell-based, human
Procedure: (§1) Western blots for S100A4 (also know as FSP-1 or fibroblast specific protein-1) and E-Cadherin were performed on whole cell lysates.

collagen 1A2 = experiment: RT-PCR for collagen 1A2 in bleomycin treated mice; type: in vivo; details: ICG-001 5 mgs/Kg/day s.c.
S100A4 [3] = experiment: RT-PCR for S100A4 in bleomycin treated mice; type: in vivo; details: ICG-001 5 mgs/Kg/day s.c.
E-Cadherin = E-Cadherin expression in IPF patient fibroblasts (Western blot on whole cell lysates); type: cell-based, human; details: RPMI 1640+10% FBS, 2 days
Procedure: as §1

[4] = system: C57/B16 mice treated with intratracheal bleomeycin; experiment: Bleomycin induced murine pulmonary fibrosis model (lung sections, trichrome stain, body weight, survival); type: in vivo
Procedure: Murine models of bleomycin induced fibrosis have been developed in order to study fibrotic disease progression.
There is an absence of airway epithelium in lower left compared to upper left (see arrow heads) and extensive collagen deposition (lower left). On the sixth day, either saline (upper right) or ICG-001 (5 mgs/Kg/day) was administered for 10 days after which the mice were sacrificed and sectioned. Of interest is the upper right (saline treatment) showing lack of normal airway epithelialization, extensive collagen deposition and intra-airway hypercellularity (fibroblasts and inflammatory influx).

[5] = bleomycin 5 days, then ICG-001 5 mgs/Kg/day for 10 days from the sixth day
[6] = bleomycin 5 days, then ICG-001 5 mgs/Kg/day for 10 days, untreated controls did not

Chain of β-catenin/CBP interaction (Q92793 whole entry): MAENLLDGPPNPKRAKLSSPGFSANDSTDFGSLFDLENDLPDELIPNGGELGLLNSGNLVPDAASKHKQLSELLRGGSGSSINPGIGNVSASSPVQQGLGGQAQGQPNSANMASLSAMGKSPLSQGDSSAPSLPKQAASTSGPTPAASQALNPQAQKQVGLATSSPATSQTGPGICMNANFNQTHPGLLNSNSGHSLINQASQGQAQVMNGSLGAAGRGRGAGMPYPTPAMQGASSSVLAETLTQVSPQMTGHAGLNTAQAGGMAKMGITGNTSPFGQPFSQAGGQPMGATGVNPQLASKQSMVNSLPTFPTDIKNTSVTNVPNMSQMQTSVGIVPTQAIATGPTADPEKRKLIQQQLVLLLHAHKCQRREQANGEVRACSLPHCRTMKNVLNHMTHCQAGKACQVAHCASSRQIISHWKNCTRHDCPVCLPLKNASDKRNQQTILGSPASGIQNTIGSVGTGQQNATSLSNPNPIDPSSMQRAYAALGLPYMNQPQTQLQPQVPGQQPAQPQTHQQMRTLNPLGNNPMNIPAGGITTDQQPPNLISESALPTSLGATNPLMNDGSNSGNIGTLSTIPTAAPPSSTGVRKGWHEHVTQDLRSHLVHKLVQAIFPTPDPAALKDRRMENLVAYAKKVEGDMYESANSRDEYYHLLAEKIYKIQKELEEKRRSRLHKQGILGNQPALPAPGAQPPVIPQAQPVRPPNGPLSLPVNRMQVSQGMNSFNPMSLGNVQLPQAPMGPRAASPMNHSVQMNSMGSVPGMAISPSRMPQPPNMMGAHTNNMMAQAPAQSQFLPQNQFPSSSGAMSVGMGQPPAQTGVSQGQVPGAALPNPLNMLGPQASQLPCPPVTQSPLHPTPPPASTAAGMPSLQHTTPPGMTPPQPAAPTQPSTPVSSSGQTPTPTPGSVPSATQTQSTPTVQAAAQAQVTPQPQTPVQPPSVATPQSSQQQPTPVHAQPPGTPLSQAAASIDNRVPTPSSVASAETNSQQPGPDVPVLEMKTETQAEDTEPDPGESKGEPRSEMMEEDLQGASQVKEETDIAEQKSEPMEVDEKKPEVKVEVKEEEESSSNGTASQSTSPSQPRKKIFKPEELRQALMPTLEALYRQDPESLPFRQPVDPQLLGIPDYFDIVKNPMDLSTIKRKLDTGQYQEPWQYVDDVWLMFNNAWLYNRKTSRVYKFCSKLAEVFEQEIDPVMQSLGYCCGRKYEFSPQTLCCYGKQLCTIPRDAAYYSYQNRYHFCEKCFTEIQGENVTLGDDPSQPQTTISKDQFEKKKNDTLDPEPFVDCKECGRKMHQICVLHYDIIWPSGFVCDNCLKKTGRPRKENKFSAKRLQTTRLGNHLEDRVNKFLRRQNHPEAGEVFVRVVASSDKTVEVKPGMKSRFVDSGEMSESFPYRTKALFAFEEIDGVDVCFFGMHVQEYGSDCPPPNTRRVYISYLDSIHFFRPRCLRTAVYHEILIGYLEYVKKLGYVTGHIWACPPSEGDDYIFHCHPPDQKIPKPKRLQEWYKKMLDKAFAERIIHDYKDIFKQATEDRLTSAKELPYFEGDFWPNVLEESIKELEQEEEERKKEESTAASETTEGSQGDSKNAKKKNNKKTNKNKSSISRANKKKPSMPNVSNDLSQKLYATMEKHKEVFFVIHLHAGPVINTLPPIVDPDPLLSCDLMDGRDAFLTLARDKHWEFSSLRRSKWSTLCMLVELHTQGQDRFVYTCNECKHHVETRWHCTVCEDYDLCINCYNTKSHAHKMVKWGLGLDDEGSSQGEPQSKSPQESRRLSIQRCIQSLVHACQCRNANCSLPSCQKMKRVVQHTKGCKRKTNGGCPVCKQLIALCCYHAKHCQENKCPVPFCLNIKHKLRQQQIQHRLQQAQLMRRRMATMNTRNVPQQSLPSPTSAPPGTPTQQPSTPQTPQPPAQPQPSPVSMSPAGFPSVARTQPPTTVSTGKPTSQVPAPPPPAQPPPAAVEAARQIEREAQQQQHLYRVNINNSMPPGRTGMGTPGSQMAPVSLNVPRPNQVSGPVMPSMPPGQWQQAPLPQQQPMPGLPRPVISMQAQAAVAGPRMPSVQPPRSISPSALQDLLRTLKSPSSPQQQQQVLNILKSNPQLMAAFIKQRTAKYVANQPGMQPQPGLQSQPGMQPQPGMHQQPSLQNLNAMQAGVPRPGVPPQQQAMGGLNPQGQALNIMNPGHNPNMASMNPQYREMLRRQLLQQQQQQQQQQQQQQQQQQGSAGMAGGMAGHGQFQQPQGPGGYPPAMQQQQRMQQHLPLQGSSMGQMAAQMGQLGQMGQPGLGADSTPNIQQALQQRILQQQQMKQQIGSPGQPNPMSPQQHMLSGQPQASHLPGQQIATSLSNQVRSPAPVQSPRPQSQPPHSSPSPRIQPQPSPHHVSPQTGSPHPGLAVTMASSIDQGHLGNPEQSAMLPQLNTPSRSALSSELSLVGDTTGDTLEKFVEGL

Structure (SMILES): O=C1[C@H](Cc2ccc(O)cc2)N2C(=O)CCN(C(=O)NCc3ccccc3)[C@H]2CN1Cc1cccc2ccccc12 [ICG-001]
- effect on β-catenin/CBP interaction [1]: selectively blocks
- S100A4 expression at the mRNA level (S100A4 [2]): this is also true at the mRNA level
- S100A4 expression (Western blot) (S100A4 [2]; RPMI 1640+10% FBS, 2 days): decreased
- collagen 1A2 message (RT-PCR) (collagen 1A2): reduced essentially to negative control
- S100A4 message (RT-PCR) (S100A4 [3]): reduced essentially to negative control
- E-cadherin expression (Western blot) (E-Cadherin): increased
- airway appearance in lung sections [4, 5]: essentially normal
- collagen levels (trichrome stain) [4, 5]: normal collagen levels
- body weight [4, 6]: regained normal body weight
- survival [4, 6]: survived
- disease progression, as judged by reduced mortality, histopathology and endogenous gene expression ([4]; murine bleomycin model of pulmonary fibrosis, 5 mg/Kg/day): not only halts but reverses disease progression
